Measured values published in ChEMBL document CHEMBL4665709, “Rational Avoidance of Protease Cleavage Sites and Symmetrical End-Tagging Significantly Enhances the Stability and Therapeutic Potential of Antimicrobial Peptides” (J Med Chem, 2020).
Values after ≈ are worked out from the molar mass of the structure shown. Active and inactive are the calls of the source. The rule behind the calls is not given here. Where a SMILES comes first, the peptide text is derived from it.

Columns and labels:
[1] = Therapeutic index, ratio of MHC for human RBC to geometric mean of peptide MIC for Enterococcus faecalis ATCC 29212; format: toxicity; conditions: human red blood cells (RBC), read-out: TI
[2] = Therapeutic index, ratio of MHC for human RBC to geometric mean of peptide MIC for Staphylococcus aureus 11011; format: toxicity; conditions: human red blood cells (RBC), read-out: TI
[3] = Therapeutic index, ratio of MHC for human RBC to geometric mean of peptide MIC for Salmonella choleraesuis 503; format: toxicity; conditions: human red blood cells (RBC), read-out: TI
Escherichia coli [4] = test: Antibacterial activity against Escherichia coli ATCC 25922 infected in C57BL/6 mouse assessed as reduction in lesion in liver at 10 mg/kg, ip measured after 11 hrs by hematoxylin and eosin staining based assay; format: functional, organism-based
Staphylococcus aureus [5] = test: Antibacterial activity against Staphylococcus aureus 11011 after 18 to 24 hrs by CLSI-based broth microdilution method; format: functional; conditions: time hrs 18-24
Escherichia coli [6] = test: Antibacterial activity against Escherichia coli ATCC 25922 after 18 to 24 hrs by CLSI-based broth microdilution method; format: functional; conditions: time hrs 18-24
[7] = Antibacterial activity against Salmonella pullorum 7913 after 18 to 24 hrs by CLSI-based broth microdilution method; format: functional, Salmonella enterica subsp. enterica serovar Pullorum; conditions: Salmonella enterica, time hrs 18-24
[8] = test system: Staphylococcus epidermidis; test: Antibacterial activity against Staphylococcus epidermidis ATCC 12228 after 18 to 24 hrs by CLSI-based broth microdilution method; format: functional; conditions: time hrs 18-24
Escherichia coli [9] = test: Antibacterial activity against Escherichia coli ATCC 25922 after 18 to 24 hrs in presence of 25% human serum by CLSI-based broth microdilution method; format: functional; conditions: time hrs 18-24
Escherichia coli [10] = test: Antibacterial activity against Escherichia coli ATCC 25922 after 18 to 24 hrs in presence of 50% human serum by CLSI-based broth microdilution method; format: functional; conditions: time hrs 18-24
Staphylococcus aureus [11] = test: Antibacterial activity against Staphylococcus aureus ATCC 29213 after 18 to 24 hrs in presence of 150 mM Na+ by CLSI-based broth microdilution method; format: functional; conditions: time hrs 18-24
Staphylococcus aureus [12] = test: Antibacterial activity against Staphylococcus aureus ATCC 29213 after 18 to 24 hrs in presence of 4.5 mM K+ by CLSI-based broth microdilution method; format: functional; conditions: time hrs 18-24
Staphylococcus aureus [13] = test: Antibacterial activity against Staphylococcus aureus ATCC 29213 after 18 to 24 hrs in presence of 1 mM Mg2+ by CLSI-based broth microdilution method; format: functional; conditions: time hrs 18-24
Staphylococcus aureus [14] = test: Antibacterial activity against Staphylococcus aureus ATCC 29213 after 18 to 24 hrs in presence of 50% human serum by CLSI-based broth microdilution method; format: functional; conditions: time hrs 18-24
Staphylococcus aureus [15] = test: Antibacterial activity against Staphylococcus aureus ATCC 29213 after 18 to 24 hrs in presence of 100% human serum by CLSI-based broth microdilution method; format: functional; conditions: time hrs 18-24
Escherichia coli [16] = test: Antibacterial activity against Escherichia coli ATCC 25922 measured after 18 to 24 hrs in presence of chymotrypsin by CLSI-based broth microdilution method; format: functional, organism-based; conditions: time hrs 18-24
Staphylococcus aureus [17] = test: Antibacterial activity against Staphylococcus aureus 29213 with 0.0625-2 mg/mL trypsin for 1 hr followed by test compound addition measured after 4 to 8 hrs by CLSI-based broth microdilution method; format: functional, organism-based; conditions: time hrs 4-8
Staphylococcus aureus [18] = test: Antibacterial activity against Staphylococcus aureus 29213 with 0.0625-2 mg/mL chymotrypsin for 1 hr followed by test compound addition measured after 4 to 8 hrs by CLSI-based broth microdilution method; format: functional, organism-based; conditions: time hrs 4-8
Staphylococcus aureus [19] = test: Antibacterial activity against Staphylococcus aureus 29213 with 0.0625-2 mg/mL pepsin for 1 hr followed by test compound addition measured after 4 to 8 hrs by CLSI-based broth microdilution method; format: functional, organism-based; conditions: time hrs 4-8
Staphylococcus aureus [20] = test: Antibacterial activity against Staphylococcus aureus 29213 with 0.0625-2 mg/mL proteinase K for 1 hr followed by test compound addition measured after 4 to 8 hrs by CLSI-based broth microdilution method; format: functional, organism-based; conditions: time hrs 4-8
[21] = Toxicity in C57BL/6 mouse assessed as effect on blood urea nitrogen level at 20 mg/kg, ip measured after 5 days; format: organism-based; conditions: in vivo, 120 h, time 5 day
[22] = Toxicity in C57BL/6 mouse assessed as effect on aspartate aminotransferase level at 20 mg/kg, ip measured after 5 days; format: organism-based; conditions: in vivo, 120 h, time 5 day
Escherichia coli [23] = test: Antibacterial activity against Escherichia coli ATCC 25922 infected in C57BL/6 mouse assessed as reduction in bacterial load in liver at 10 mg/kg, ip measured after 11 hrs (reference value: 7.12 log CFU/g); format: functional
Escherichia coli [24] = test: Antibacterial activity against Escherichia coli ATCC 25922 infected in C57BL/6 mouse assessed as reduction in bacterial load in spleen at 10 mg/kg, ip measured after 11 hrs (reference value: 6.02 log CFU/g); format: functional
Escherichia coli [25] = test: Antibacterial activity against Escherichia coli ATCC 25922 infected in C57BL/6 mouse assessed as reduction in inflammatory cell infiltration in lung at 10 mg/kg, ip measured after 11 hrs by hematoxylin and eosin staining based assay; format: functional, organism-based
Escherichia coli [26] = test: Antibacterial activity against Escherichia coli ATCC 25922 infected in C57BL/6 mouse assessed as reduction in bleeding in kidney at 10 mg/kg, ip measured after 11 hrs by hematoxylin and eosin staining based assay; format: functional, organism-based
Escherichia coli [27] = test: Antibacterial activity against Escherichia coli ATCC 25922 infected in C57BL/6 mouse assessed as reduction in bleeding in spleen at 10 mg/kg, ip measured after 11 hrs by hematoxylin and eosin staining based assay; format: functional, organism-based
Escherichia coli [28] = test: Antibacterial activity against Escherichia coli ATCC 25922 infected in C57BL/6 mouse assessed as reduction in TNF-alpha level in serum at 10 mg/kg, ip measured after 11 hrs by ELISA; format: functional, organism-based
[29] = Stability of compound assessed as proteinase K (unknown origin)-mediated drug degradation after 8 hrs by RP-HPLC analysis; format: ADME; conditions: human
[30] = Stability of compound assessed as proteinase K (unknown origin)-mediated drug degradation after 8 hrs by SDS-PAGE analysis; format: ADME; conditions: human
Cell membrane [31] = test: Induction of outer membrane permeabilization in Escherichia coli ATCC 25922 after 30 mins by NPN-dye based assay
Cell membrane [32] = test: Induction of morpholoical changes in membrane of Escherichia coli ATCC 25922 assessed as fragmentation in bacterial membrane at 1 times MIC after 1 hr by scanning electron microscopy; format: subcellular
Cell membrane [33] = test: Induction of structural changes in membrane of Escherichia coli ATCC 25922 assessed as cytoplasmic membrane separation at 1 times MIC after 1 hr by transmission electron microscopy; format: subcellular
Cell membrane [34] = test: Induction of structural changes in membrane of Escherichia coli ATCC 25922 assessed as outer membrane separation at 1 times MIC after 1 hr by transmission electron microscopy; format: subcellular
Cell membrane [35] = test: Induction of structural changes in membrane of Escherichia coli ATCC 25922 assessed as membrane rupture at 1 times MIC after 1 hr by transmission electron microscopy; format: subcellular
Cell membrane [36] = test: Induction of structural changes in membrane of Escherichia coli ATCC 25922 assessed as cytoplasmic leakage at 1 times MIC after 1 hr by transmission electron microscopy
Cell membrane [37] = test: Induction of structural changes in membrane of Staphylococcus aureus ATCC 29213 assessed as membrane damage at 1 times MIC after 1 hr by transmission electron microscopy; format: subcellular

CC[C@H](C)[C@H](N)C(=O)N[C@H](C(=O)N[C@H](C(=O)N[C@@H](CS)C(=O)N[C@@H](CCCNC(=N)N)C(=O)N[C@@H](CCCCN)C(=O)N1CCC[C@H]1C(=O)N[C@H](C(=O)N[C@H](C(=O)N[C@@H](CS)C(=O)N[C@@H](CCCNC(=N)N)C(=O)N[C@@H](CCCCN)C(=O)N1CCC[C@H]1C(=O)N[C@H](C(=O)N[C@H](C(=O)N[C@@H](CS)C(=O)N[C@@H](CCCNC(=N)N)C(=O)N[C@@H](CCCCN)C(=O)N1CCC[C@H]1C(=O)N[C@H](C(=O)N[C@H](C(=O)N[C@@H](CS)C(=O)N[C@@H](CCCNC(=N)N)C(=O)N[C@@H](CCCCN)C(=O)N1CCC[C@H]1C(=O)N[C@H](C(=O)N[C@H](C(=O)N[C@H](C(N)=O)[C@@H](C)CC)[C@@H](C)CC)[C@@H](C)CC)[C@@H](C)CC)[C@@H](C)CC)[C@@H](C)CC)[C@@H](C)CC)[C@@H](C)CC)[C@@H](C)CC)[C@@H](C)CC)[C@@H](C)CC (H-IIICRKPIICRKPIICRKPIICRKPIII-NH2)
selectivity ratio [1]: 28.5 | selectivity ratio [2]: 28.5 | selectivity ratio [3]: 57 | Activity (Escherichia coli [4]): Active | MIC (Staphylococcus aureus [5]): 4 µM (≈ 13.3 µg/mL) | MIC (Escherichia coli [6]): 2 µM (≈ 6.63 µg/mL) | MIC [7]: 4 µM (≈ 13.3 µg/mL) | MIC [8]: 4 µM (≈ 13.3 µg/mL) | MIC (Escherichia coli [9]): 4 µM | MIC (Escherichia coli [10]): 4 µM | MIC (Staphylococcus aureus [11]): 16 µM | MIC (Staphylococcus aureus [12]): 8 µM | MIC (Staphylococcus aureus [13]): 16 µM | MIC (Staphylococcus aureus [14]): 16 µM | MIC (Staphylococcus aureus [15]): 32 µM | Activity (Escherichia coli [16]): Active | Activity (Staphylococcus aureus [17]): Active | Activity (Staphylococcus aureus [18]): Active | Activity (Staphylococcus aureus [19]): Active | Activity (Staphylococcus aureus [20]): Active | Activity [21]: Non-Toxic | Activity [22]: Non-Toxic | Activity (Escherichia coli [23]): 5.08 log10CFU/g | Activity (Escherichia coli [24]): 4.89 log10CFU/g | Activity (Escherichia coli [25]): Active | Activity (Escherichia coli [26]): Active | Activity (Escherichia coli [27]): Active | Activity (Escherichia coli [28]): Active | Stabilty [29]: Stable | Stabilty [30]: Stable | Activity (Cell membrane [31]): Dose-dependent effect | Activity (Cell membrane [32]): Active | Activity (Cell membrane [33]): Active | Activity (Cell membrane [34]): Active | Activity (Cell membrane [35]): Active | Activity (Cell membrane [36]): Active | Activity (Cell membrane [37]): Active
